Patent publication US20240174674A1, “NITROGEN-CONTAINING POLYCYCLIC FUSED RING COMPOUND, PHARMACEUTICAL COMPOSITION THEREOF, PREPARATION METHOD THEREFOR, AND USE THEREOF” (APPLIED PHARMACEUTICAL SCIENCE, INC., priority 2021, published 2024)

What was measured:
RET-wt = RET-wt (Homo sapiens (Human), UniProt P07949); assay: HTRF KinEASE-TK kinase activity test, RET-wt; type: biochemical; settings: for IC50: HTRF kinase assay; for inhibitory activity against RET-wt compared to that of cabozantinib: versus cabozantinib
RET-wt, sequence (P07949 29-1114): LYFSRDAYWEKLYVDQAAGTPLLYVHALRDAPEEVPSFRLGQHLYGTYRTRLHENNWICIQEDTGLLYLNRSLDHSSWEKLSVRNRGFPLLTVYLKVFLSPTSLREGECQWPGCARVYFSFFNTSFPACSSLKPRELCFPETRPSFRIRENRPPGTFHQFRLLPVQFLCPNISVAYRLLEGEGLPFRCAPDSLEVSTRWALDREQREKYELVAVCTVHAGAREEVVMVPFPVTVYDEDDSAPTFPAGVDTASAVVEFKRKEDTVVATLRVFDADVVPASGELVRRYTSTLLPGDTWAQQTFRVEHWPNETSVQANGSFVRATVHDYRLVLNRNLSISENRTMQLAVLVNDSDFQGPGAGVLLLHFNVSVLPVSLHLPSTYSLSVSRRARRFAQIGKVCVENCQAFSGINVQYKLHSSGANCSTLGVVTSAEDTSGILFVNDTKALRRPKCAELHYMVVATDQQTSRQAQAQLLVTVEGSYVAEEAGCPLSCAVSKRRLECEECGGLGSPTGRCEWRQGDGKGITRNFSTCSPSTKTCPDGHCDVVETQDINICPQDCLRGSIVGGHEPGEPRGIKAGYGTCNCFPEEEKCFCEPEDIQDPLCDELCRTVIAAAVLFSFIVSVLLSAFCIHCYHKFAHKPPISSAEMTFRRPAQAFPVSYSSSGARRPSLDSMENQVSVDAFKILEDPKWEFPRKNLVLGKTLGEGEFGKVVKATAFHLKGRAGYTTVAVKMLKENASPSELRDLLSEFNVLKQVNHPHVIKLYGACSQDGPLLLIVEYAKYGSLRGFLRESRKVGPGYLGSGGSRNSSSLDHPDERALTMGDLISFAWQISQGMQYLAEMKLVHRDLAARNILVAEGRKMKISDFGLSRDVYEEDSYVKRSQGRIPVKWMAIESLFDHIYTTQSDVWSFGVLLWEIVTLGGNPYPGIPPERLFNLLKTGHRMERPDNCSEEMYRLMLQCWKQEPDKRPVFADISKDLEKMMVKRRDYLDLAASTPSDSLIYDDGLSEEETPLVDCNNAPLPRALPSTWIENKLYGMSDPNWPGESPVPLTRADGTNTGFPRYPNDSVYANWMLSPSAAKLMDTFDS

RET V804M = RET V804M (Homo sapiens (Human), UniProt P07949, V804M); assay: HTRF KinEASE-TK kinase activity test, RET V804M; type: biochemical; settings: for IC50: HTRF kinase assay; for inhibitory activity against RET V804M compared to that of cabozantinib: versus cabozantinib
RET V804M, sequence (P07949 29-1114 V804M): as the sequence (P07949 29-1114) above, with V776M counted along it

RET G810R = RET G810R (Homo sapiens (Human), UniProt P07949, G810R); assay: HTRF KinEASE-TK kinase activity test, RET G810R; settings: for IC50: read-out: RET G810R IC50, HTRF kinase assay; for inhibitory activity against RET G810R relative to that of selpercatinib (LOXO-292): fold versus selpercatinib (LOXO-292)
RET G810R, sequence (P07949 29-1114 G810R): as the sequence (P07949 29-1114) above, with G782R counted along it

Row | Compound | IC50 (RET-wt) | inhibitory activity against RET-wt compared to that of cabozantinib (RET-wt) | IC50 (RET V804M) | inhibitory activity against RET V804M compared to that of cabozantinib (RET V804M) | IC50 (RET G810R) | inhibitory activity against RET G810R relative to that of selpercatinib (LOXO-292) (RET G810R)
1 | CCOc1cc(-c2ccc(N3CC[C@H](NC(=O)OC(C)(C)C)[C@@H](O)C3)nc2)c2c3cn[nH]c3nn2c1 [Compound 88, Tert-butyl ((3S,4S)-1-(5-(6-ethoxy-1H-pyrazolo[3′,4′:3,4]pyrazolo[1,5-α]pyridin-4-yl)pyridin-2-yl)-3-hydroxypiperidin-4-yl)carbamate] | 0.1 nM | significantly superior | 0.2 nM | significantly superior | 7.8 nM | –
2 | CCOc1cc(-c2ccc(N3CC[C@H](NC(=O)c4c(F)cccc4Cl)[C@@H](O)C3)nc2)c2c3cn[nH]c3nn2c1 [Compound 44, 2-chloro-N-((3S,4S)-1-(5-(6-ethoxy-1H-pyrazolo[3′,4′:3,4]pyrazolo[1,5-α]pyridin-4-yl)pyridin-2-yl)-3-hydroxypiperidin-4-yl)-6-fluorobenzamide] | 0.1 nM | significantly superior | 0.1 nM | significantly superior | 0.8 nM | ≥ 10 times
3 | CCOc1cc(-c2ccc(N3CCC(CO)(NC(=O)c4c(F)cccc4F)CC3)nc2)c2c3cn[nH]c3nn2c1 [Compound 11, N-(1-(5-(6-ethoxy-1H-pyrazolo[3′,4′:3,4]pyrazolo[1,5-α]pyridin-4-yl)pyridin-2-yl)-4-(hydroxymethyl)piperidin-4-yl)-2,6-difluorobenzamide] | 0.1 nM | significantly superior | 0.1 nM | significantly superior | 0.36 nM | ≥ 10 times
